Reference: patent US20050059744A1, “Methods and compositions for the treatment of pain and other alpha 2 adrenergic-mediated conditions” (Allergan, Inc., priority 2003, published 2005)
Where two headings read alike, the source gives them in different places.

What was measured:
[1] = tested on: intraocular pressure of rabbit eyes; assay: Normotensive intraocular pressure in rabbit eyes after topical instillation (pneumatonometer); type: in vivo, New Zealand rabbits
Description: Male New Zealand rabbits are used to evaluate drug effects on normotensive IOP measurements. The rabbits are carefully handled so as to minimize excitement. They should be picked up by the nape of the neck, with their hindlegs supported by the other hand. After removing the rabbit from its cage, approximately 25 ul of dilute Ophthetic® (0.05%) topical anesthesia is administered to each eye. An initial IOP determination is made in both eyes. Rabbits with 3 mmHg or greater difference in IOP between right and left eyes are replaced at this time.
Immediately following the time zero (T=0) reading in both eyes, one eye of each experimental rabbit is instilled with an ophthalmic formulation of 0.1% (w/w) brimonidine tartrate onto the cornea of the randomly selected test eye. […] The other eye is given the vehicle containing no drug. The ophthalmic formulations comprise 50 ppm Purite® (stabilized chlorine dioxide), 0.5% carboxymethylcellulose, 0.6% (w/w) borate buffer (pH 7.7) and small amounts of salts (NaCl, KCl, CaCl2, MgCl2). Intraocular pressure of both treated (ipsalateral)and untreated (contralateral) eyes is measured at the indicated time intervals for seven hours. Pressure readings utilize a Model 30 Classic™ Pneumatonometer as the measuring and recording instrument. It measures intraocular pressure (IOP) non-invasively through applanation tonometry.

[2] = tested on: Chung model of allodynic rats
From the text: A model for chronic pain (in particular peripheral neuropathy) involves the surgical ligation of the L5 (and optionally the L6) spinal nerves on one side in experimental animals. Rats recovering from the surgery gain weight and display a level of general activity similar to that of normal rats. However, these rats develop abnormalities of the foot, wherein the hindpaw is moderately everted and the toes are held together. More importantly, the hindpaw on the side affected by the surgery appears to become sensitive to pain from low-threshold mechanical stimuli, such as that producing a faint sensation of touch in a human, within about 1 week following surgery. This sensitivity to normally non-painful touch is called “tactile allodynia” and lasts for at least two months. The response includes lifting the affected hindpaw to escape from the stimulus, licking the paw and holding it in the air for many seconds. None of these responses is normally seen in the control group.
Rats are anesthetized before surgery. The surgical site is shaved and prepared either with betadine or novacaine. Incision is made from the thoracic vertebra X111 down toward the sacrum. Muscle tissue is separated from the spinal vertebra (left side) at the L4-S2 levels. The L6 vertebra is located and the transverse process is carefully removed with a small rongeur to expose the L4-L6 spinal nerves. The L5 and L6 spinal nerves are isolated and tightly ligated with 6-0 silk thread. The same procedure is done on the right side as a control, except no ligation of the spinal nerves is performed.
A complete hemostasis is confirmed, then the wounds are sutured. A small amount of antibiotic ointment is applied to the incised area, and the rat is transferred to the recovery plastic cage under a regulated heat-temperature lamp. […]
In the Chung rat model, tactile allodynia is measured prior to and 30 minutes after drug administration using von Frey hairs that are a series of fine hairs with incremental differences in stiffness. […]

male Sprague-Dawley rats = conditions: graded 30 minutes after administration
Description: (§1) To test sedation, six male Sprague-Dawley rats are given various doses of a clonidine intrathecal injection. Sedation is graded 30 minutes following administration of the drug by monitoring locomotor skills as follows. Rats are placed in a dark covered chamber and a digicom analyzer (Omnitech Electronic) quantitates their exploratory behavior for a five-minute period. The machine records each time the rat interrupts an array of 32 photoelectric beams in the X and Y orientation, and quantifies the difference in behavior as compared to control animals given saline instead of clonidine.

[3] = tested on: sulprostone-induced allodynia in mice; assay: Sulprostone-induced allodynia mouse model, paint brush pain score; type: in vivo
Description: Alternatively, allodynia can be induced in mice through intrathecal treatment of the animals with 200 ng sulprostone (prostaglandin E2 receptor agonist) in 50% DMSO and in a volume of 5 μl. In this model, the pain response to stroking the flank with a paint brush is scored 8 times over a 35 minute period starting 15 minutes following spinal administration of sulprostone. Minami et al., 57 Pain 217-223 (1994).
The compounds are formulated in approximately 0.01-5% DMSO and given in a volume of 1 ml/kg body weight for systemic dosing or 5 μl in saline for intrathecal dosing. Clonidine is tested at intrathecal doses ranging between 0.01 and 10.0 μg.
Amitriptylene is dissolved in 50% DMSO at the indicated doses and injected in a volume of 5 ul intrathecally into each mouse, in conjunction with either a 30 ug/kg IP injection of 5-methylurapadil or with a similar injection of saline.
Experimental procedure is the same as in Example 1, except both clonidine (various doses) and 5-methylurapidil (1 microgram intrathecal) are coadministered by intrathecal injection in a 50% DMSO vehicle and in a total volume of 5 microliters.

sedation = assay: Clonidine sedative activity dose response with or without 5-methylurapadil (FIG. 2); conditions: co-administration of 5-methyl urapidil 30 μg/kg intraperitoneal vs clonidine alone
Description: as §1

[4] = 0.1% brimonidine and 0.003% prazosin, FIG. 4D
[5] = 35 microliters 0.003% prazosin instilled, FIG. 4A

## Brc1c(NC2=NCCN2)ccc2nccnc12 [brimonidine]
[1]; 0.1% brimonidine alone, after the first 30 minutes, FIG. 4B
  lowering of intraocular pressure: ~30%
[1]; 0.1% brimonidine alone, within the first 30 minutes, FIG. 4B
  initial change in intraocular pressure: pronounced increase
[1]; [4]
  initial change in intraocular pressure: only a very small increase
  peak IOP lowering: approximately 40%
[1]; co-installation of 0.1% brimonidine and 0.001% prazosin, FIG. 4C
  difference in intraocular pressure response vs brimonidine alone: Little difference

## Clc1cccc(Cl)c1N=C1NCCN1 [clonidine]
[2]; intrathecal dose of 0.1 μg, allodynic rats
  analgesia: no analgesia
[2]; intrathecal dose of 1.0 μg, allodynic rats
  analgesia: maximal analgesia
[2]; rats, dose-dependence statement
  analgesia: analgesic
Male Sprague-Dawley rats; intrathecal dose of 3.0 μg
  sedation: mildly sedating
Male Sprague-Dawley rats; intrathecal dose of 10 μg
  sedation: maximal sedation
[3]; 5-methyl urapidil 30 μg/kg intraperitoneal 5 minutes before clonidine
  shift of the effective analgesic dose lower vs clonidine alone: 10 fold
[3]; clonidine 0.1 microgram intrathecal in the absence of prazosin
  analgesia: not analgesic
[3]; clonidine (various doses) and 5-methylurapidil 1 microgram coadministered intrathecally
  analgesic results compared with intraperitoneal injection of the alpha 1 antagonist: substantially similar
[3]; coadministration of prazosin 100 ng/kg intraperitoneal
  decrease in the EC50 for clonidine vs i.t. clonidine alone: four
[3]; mice, dose-dependence statement
  analgesia: analgesic
sedation
  sedating dose: unchanged

## COc1cc2nc(N3CCN(C(=O)c4ccco4)CC3)nc(N)c2cc1OC [prazosin]
[1]; [5]
  intraocular pressure compared to the untreated eye: small initial drop
  return to baseline pressure: 2 h

## CN(C)CCC=C1c2ccccc2CCc2ccccc21 [Amitriptylene, amitriptylene]
[3]; amitriptylene intrathecal with 30 ug/kg IP 5-methylurapadil vs with saline
  reduction in the dosage necessary to achieve maximal analgesia: approximately three
